Reference: patent US6358885B1, “Substituted phenylheterocyclic herbicides” (Mississippi State University, priority 1992, dated 2002)

Columns and labels:
lambsquarters = experiment: Test C preemergence/postemergence greenhouse plant response rating 0 to 100; assay type: in vivo, Chenopodium album; details: POSTEMERGENCE; for Plant response rating Lambsquarters: 0 to 100 scale
Method in brief: (§1)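 Compounds in non-phytotoxic solvent went onto sandy loam before emergence (seeded one day earlier) or onto plants at the one-to-four leaf stage. Duck salad was treated via flood water (~2.5 cm, maintained) over silt loam.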

wheat = experiment: as above; assay type: in vivo, Triticum aestivum; details: POSTEMERGENCE; for Plant response rating, Wheat: 0 to 100 scale
Method in brief: as §1

barnyardgrass = experiment: Test C flood test plant response rating 0 to 100; assay type: in vivo, Echinochloa crus-galli; details: for Plant response rating (0 to 100), Barnyardgrass 2: under POSTEMERGENCE head (flood test species); for Plant response rating Barnyardgrass 2: flood test species listed under POSTEMERGENCE, 0 to 100 scale
Method in brief: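 Compounds in non-phytotoxic solvent applied preemergence to sandy loam one day after planting, postemergence at the 1–4 leaf stage, or to ~2.5 cm floodwater over silt loam.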

bedstraw = experiment: Test B preemergence/postemergence greenhouse plant response rating 0 to 10; assay type: in vivo, Galium aparine; details: 0 to 10 scale
Method in brief: (§2)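 Planted seeds are treated preemergence with compound dissolved in a non-phytotoxic solvent, while postemergence applications go onto plants of two to eighteen cm. Plants stay in the greenhouse twelve to sixteen days and are then rated visually relative to controls.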

wild buckwheat = experiment: as above; assay type: in vivo, Polygonum convolvulus; details: 0 to 10 scale
Method in brief: as §2

blackgrass [1] = experiment: Test C preemergence/postemergence greenhouse plant response rating 0 to 100; assay type: in vivo, Alopecurus myosuroides; details: POSTEMERGENCE; for Plant response rating, Blackgrass: 0 to 100 scale
Method in brief: as §1

cotton = experiment: Test B preemergence/postemergence greenhouse plant response rating 0 to 10; assay type: in vivo, Gossypium hirsutum; details: 0 to 10 scale
Method in brief: as §2

sugar beet = experiment: Test C preemergence/postemergence greenhouse plant response rating 0 to 100; assay type: in vivo, Beta vulgaris; details: POSTEMERGENCE; for Plant response rating, Sugar beet: 0 to 100 scale
Method in brief: as §1

cheatgrass = experiment: Test B preemergence/postemergence greenhouse plant response rating 0 to 10; assay type: in vivo, Bromus secalinus; details: 0 to 10 scale
Method in brief: as §2

ryegrass = experiment: Test C preemergence/postemergence greenhouse plant response rating 0 to 100; assay type: in vivo, Lolium multiflorum; details: POSTEMERGENCE; for Plant response rating Ryegrass: 0 to 100 scale
Method in brief: as §1

rice = experiment: Test B preemergence/postemergence greenhouse plant response rating 0 to 10; assay type: in vivo, Oryza sativa; details: 0 to 10 scale
Method in brief: as §2

barley = experiment: as above; assay type: in vivo, Hordeum vulgare; details: 0 to 10 scale
Method in brief: as §2

rape = experiment: Test C preemergence/postemergence greenhouse plant response rating 0 to 100; assay type: in vivo, Brassica napus; details: POSTEMERGENCE; for Plant response rating, Rape: 0 to 100 scale
Method in brief: as §1

duck salad = experiment: Test C flood test plant response rating 0 to 100; assay type: in vivo, Heteranthera limosa; details: for Plant response rating (0 to 100), Duck salad: under POSTEMERGENCE head (flood test species); for Plant response rating Duck salad: flood test species listed under POSTEMERGENCE, 0 to 100 scale
Method in brief: as §1

giant foxtail = experiment: Test C preemergence/postemergence greenhouse plant response rating 0 to 100; assay type: in vivo, Setaria faberii; details: POSTEMERGENCE; for Plant response rating, Giant foxtail: 0 to 100 scale
Method in brief: as §1

cocklebur = experiment: Test B preemergence/postemergence greenhouse plant response rating 0 to 10; assay type: in vivo, Xanthium pensylvanicum; details: 0 to 10 scale
Method in brief: as §2

blackgrass [2] = experiment: as above; assay type: in vivo, Alopecurus myosuroides; details: 0 to 10 scale
Method in brief: as §2

corn = experiment: Test C preemergence/postemergence greenhouse plant response rating 0 to 100; assay type: in vivo, Zea mays; details: POSTEMERGENCE; for Plant response rating, Corn: 0 to 100 scale
Method in brief: as §1

For `CCOC(=O)COc1cc(-c2nn3c(c2Cl)CCCC3)c(F)cc1Cl` [Compound 42], the “Plant response rating Lambsquarters” value (lambsquarters; 62 g/ha) was 100, the “Plant response rating Lambsquarters” value (lambsquarters; 125 g/ha) was 100 and the “Plant response rating (0 to 100), Lambsquarters” value (lambsquarters; Rate 16 g/ha) was 100. The “Plant response rating (0 to 100), Lambsquarters” value (lambsquarters; Rate 31 g/ha) was 100, the “Plant response rating, Wheat” value (wheat; 62 g/ha) was 30 and the “Plant response rating, Wheat” value (wheat; 125 g/ha) was 40. For the same compound, the “Plant response rating (0 to 100), Wheat” value (wheat; Rate 16 g/ha) was 10, the “Plant response rating (0 to 100), Wheat” value (wheat; Rate 31 g/ha) was 20 and the “Plant response rating (0 to 100), Barnyardgrass 2” value (barnyardgrass; Rate 16 g/ha) was 0. For the same compound, the “Plant response rating (0 to 100), Barnyardgrass 2” value (barnyardgrass; Rate 31 g/ha) was 20, the “Plant response rating Barnyardgrass 2” value (barnyardgrass; 62 g/ha) was 40 and the “Plant response rating Barnyardgrass 2” value (barnyardgrass; 125 g/ha) was 60. The “Plant response rating, Bedstraw” value (bedstraw; POSTEMERGENCE, Rate 50 g/ha) was 10, the “Plant response rating, Bedstraw” value (bedstraw; POSTEMERGENCE, Rate 200 g/ha) was 9 and the “Plant response rating, Bedstraw” value (bedstraw; PREEMERGENCE, Rate 50 g/ha) was 7. For the same compound, the “Plant response rating, Bedstraw” value (bedstraw; Rate 200 g/ha, PREEMERGENCE) was 9, the “Plant response rating, Wild buckwheat” value (wild buckwheat; POSTEMERGENCE, Rate 50 g/ha) was 9 and the “Plant response rating, Wild buckwheat” value (wild buckwheat; PREEMERGENCE, Rate 50 g/ha) was 0. The “Plant response rating, Wild buckwheat” value (wild buckwheat; Rate 200 g/ha, POSTEMERGENCE) was 9, the “Plant response rating, Wild buckwheat” value (wild buckwheat; Rate 200 g/ha, PREEMERGENCE) was 7 and the “Plant response rating, Blackgrass” value (blackgrass [1]; 62 g/ha) was 30. The “Plant response rating, Blackgrass” value (blackgrass [1]; 125 g/ha) was 30, the “Plant response rating (0 to 100), Blackgrass” value (blackgrass [1]; Rate 16 g/ha) was 10 and the “Plant response rating (0 to 100), Blackgrass” value (blackgrass [1]; Rate 31 g/ha) was 20. The “Plant response rating, Cotton” value (cotton; POSTEMERGENCE, Rate 50 g/ha) was 10, the “Plant response rating, Cotton” value (cotton; POSTEMERGENCE, Rate 200 g/ha) was 10 and the “Plant response rating, Cotton” value (cotton; PREEMERGENCE, Rate 50 g/ha) was 0. The “Plant response rating, Cotton” value (cotton; Rate 200 g/ha, PREEMERGENCE) was 0, the “Plant response rating, Sugar beet” value (sugar beet; 62 g/ha) was 100 and the “Plant response rating, Sugar beet” value (sugar beet; 125 g/ha) was 100. For the same compound, the “Plant response rating (0 to 100), Sugar beet” value (sugar beet; Rate 16 g/ha) was 100, the “Plant response rating (0 to 100), Sugar beet” value (sugar beet; Rate 31 g/ha) was 100 and the “Plant response rating, Cheatgrass” value (cheatgrass; POSTEMERGENCE, Rate 50 g/ha) was 1. The “Plant response rating, Cheatgrass” value (cheatgrass; POSTEMERGENCE, Rate 200 g/ha) was 3, the “Plant response rating, Cheatgrass” value (cheatgrass; PREEMERGENCE, Rate 50 g/ha) was 0 and the “Plant response rating, Cheatgrass” value (cheatgrass; Rate 200 g/ha, PREEMERGENCE) was 0. For the same compound, the “Plant response rating Ryegrass” value (ryegrass; 62 g/ha) was 30, the “Plant response rating Ryegrass” value (ryegrass; 125 g/ha) was 40 and the “Plant response rating (0 to 100), Ryegrass” value (ryegrass; Rate 16 g/ha) was 10. For the same compound, the “Plant response rating (0 to 100), Ryegrass” value (ryegrass; Rate 31 g/ha) was 20, the “Plant response rating, Rice” value (rice; POSTEMERGENCE, Rate 50 g/ha) was 4 and the “Plant response rating, Rice” value (rice; PREEMERGENCE, Rate 50 g/ha) was 0. The “Plant response rating, Rice” value (rice; Rate 200 g/ha, POSTEMERGENCE) was 6, the “Plant response rating, Rice” value (rice; Rate 200 g/ha, PREEMERGENCE) was 2 and the “Plant response rating, Barley” value (barley; POSTEMERGENCE, Rate 50 g/ha) was 3. For the same compound, the “Plant response rating, Barley” value (barley; POSTEMERGENCE, Rate 200 g/ha) was 4, the “Plant response rating, Barley” value (barley; PREEMERGENCE, Rate 50 g/ha) was 0 and the “Plant response rating, Barley” value (barley; Rate 200 g/ha, PREEMERGENCE) was 0. The “Plant response rating, Rape” value (rape; 62 g/ha) was 95, the “Plant response rating, Rape” value (rape; 125 g/ha) was 100 and the “Plant response rating (0 to 100), Rape” value (rape; Rate 16 g/ha) was 50. For the same compound, the “Plant response rating (0 to 100), Rape” value (rape; Rate 31 g/ha) was 70, the “Plant response rating (0 to 100), Duck salad” value (duck salad; Rate 16 g/ha) was 0 and the “Plant response rating (0 to 100), Duck salad” value (duck salad; Rate 31 g/ha) was 0. For the same compound, the “Plant response rating Duck salad” value (duck salad; 62 g/ha) was 0, the “Plant response rating Duck salad” value (duck salad; 125 g/ha) was 20 and the “Plant response rating, Giant foxtail” value (giant foxtail; 62 g/ha) was 50. For the same compound, the “Plant response rating, Giant foxtail” value (giant foxtail; 125 g/ha) was 70, the “Plant response rating (0 to 100), Giant foxtail” value (giant foxtail; Rate 16 g/ha) was 30 and the “Plant response rating (0 to 100), Giant foxtail” value (giant foxtail; Rate 31 g/ha) was 30. For the same compound, the “Plant response rating, Cocklebur” value (cocklebur; POSTEMERGENCE, Rate 50 g/ha) was 10, the “Plant response rating, Cocklebur” value (cocklebur; POSTEMERGENCE, Rate 200 g/ha) was 10 and the “Plant response rating, Cocklebur” value (cocklebur; PREEMERGENCE, Rate 50 g/ha) was 0. For the same compound, the “Plant response rating, Cocklebur” value (cocklebur; Rate 200 g/ha, PREEMERGENCE) was 0, the “Plant response rating, Blackgrass” value (blackgrass [2]; POSTEMERGENCE, Rate 50 g/ha) was 2 and the “Plant response rating, Blackgrass” value (blackgrass [2]; POSTEMERGENCE, Rate 200 g/ha) was 3. The “Plant response rating, Blackgrass” value (blackgrass [2]; PREEMERGENCE, Rate 50 g/ha) was 0, the “Plant response rating, Blackgrass” value (blackgrass [2]; Rate 200 g/ha, PREEMERGENCE) was 0 and the “Plant response rating, Corn” value (corn; 62 g/ha) was 40. For the same compound, the “Plant response rating, Corn” value (corn; 125 g/ha) was 40, the “Plant response rating (0 to 100), Corn” value (corn; Rate 16 g/ha) was 20 and the “Plant response rating (0 to 100), Corn” value (corn; Rate 31 g/ha) was 30.
